Data: patent publication US10556888B2, “Pyrazole compounds or salts thereof, preparation methods therefor, herbicidal compositions and use thereof” (QINGDAO KINGAGROOT CHEMICAL COMPOUNDS CO., LTD, priority 2015, dated 2020)

How the values were obtained:
[1] = test system: Monocotyledonous and dicotyledonous weed; assay: Post-emergence test experiment, weed control effect (Table 2); format: in vivo; design: key to weed control effect, Setaria viridis (level) / weed control effect, Rorippa indica (level) / weed control effect, Abutilon theophrasti (level) / weed control effect, Echinochloa crus-galli (level) / weed control effect, Digitaria sanguinalis (level): Level 10: completely dead; Level 9: above 90% growth inhibition rate; Level 8: above 80% growth inhibition rate; Level 7: above 70% growth inhibition rate; Level 6: above 60% growth inhibition rate; Level 5: above 50% growth inhibition rate; Level 4: above 30% growth inhibition rate; Level 3: above 20% growth inhibition rate; Level 2: above 10% growth inhibition rate; Level 1: above 1-10% growth inhibition rate; Level 0: no effect; conditions: 3 weeks after spraying, greenhouse
Method: (§1) Post-emergence test experiment: Monocotyledonous and dicotyledonous weed seeds and main crop seeds (i.e. wheat, corn, rice, soybean, cotton, oilseed, millet and sorghum.) were put into a plastic pot loaded with soil. Then covered with 0.5-2 cm soil, the seeds were allowed to grow in good greenhouse environment. The test plants were treated at 2-3 leaf stage 2-3 weeks after sowing. The test compounds of the invention were dissolved with acetone respectively, then added with 80 tween and diluted by certain amount of water to certain concentration. The solution was sprayed to the plants with a sprayer. Then the plants were cultured for 3 weeks in the greenhouse.

[2] = test system: main crop (wheat, corn, rice, soybean, cotton, oilseed, millet and sorghum); assay: Post-emergence test experiment, main crops (Table 2); format: in vivo; design: key: Level 10: completely dead; Level 9: above 90% growth inhibition rate; Level 8: above 80% growth inhibition rate; Level 7: above 70% growth inhibition rate; Level 6: above 60% growth inhibition rate; Level 5: above 50% growth inhibition rate; Level 4: above 30% growth inhibition rate; Level 3: above 20% growth inhibition rate; Level 2: above 10% growth inhibition rate; Level 1: above 1-10% growth inhibition rate; Level 0: no effect; conditions: 3 weeks after spraying, greenhouse
Method: as §1

| Compound | weed control effect, Abutilon theophrasti (level) ([1]; 30 g/ha) | weed control effect, Bidens pilosa (level) ([1]; 30 g/ha) | weed control effect, Digitaria sanguinalis (level) ([1]; 30 g/ha) | weed control effect, Echinochloa crus-galli (level) ([1]; 30 g/ha) | weed control effect, Rorippa indica (level) ([1]; 30 g/ha) | weed control effect, Setaria viridis (level) ([1]; 30 g/ha) | effect on crop, corn (level) ([2]; 30 g/ha) | effect on crop, rice (level) ([2]; 30 g/ha) | effect on crop, wheat (level) ([2]; 30 g/ha) | weed control effect, Abutilon theophrasti (level) ([1]; 60 g/ha) | weed control effect, Bidens pilosa (level) ([1]; 60 g/ha) | weed control effect, Digitaria sanguinalis (level) ([1]; 60 g/ha) | weed control effect, Echinochloa crus-galli (level) ([1]; 60 g/ha) | weed control effect, Rorippa indica (level) ([1]; 60 g/ha) | weed control effect, Setaria viridis (level) ([1]; 60 g/ha) | effect on crop, corn (level) ([2]; 60 g/ha) | effect on crop, rice (level) ([2]; 60 g/ha) | effect on crop, wheat (level) ([2]; 60 g/ha) |
| --- | --- | --- | --- | --- | --- | --- | --- | --- | --- | --- | --- | --- | --- | --- | --- | --- | --- | --- |
| C#CCOCc1c(S(C)(=O)=O)ccc(C(=O)c2c(C)nn(C)c2OC(=O)c2cn(C)nc2C)c1Cl [Compound 33] | 7 (Level 7: above 70% growth inhibition rate) | 7 (Level 7: above 70% growth inhibition rate) | 9 (Level 9: above 90% growth inhibition rate) | 9 (Level 9: above 90% growth inhibition rate) | 5 (Level 5: above 50% growth inhibition rate) | 9 (Level 9: above 90% growth inhibition rate) | 1 (Level 1: above 1-10% growth inhibition rate) | 5 (Level 5: above 50% growth inhibition rate) | 0 | – | – | – | – | – | – | – | – | – |
| CCCCOCc1c(S(C)(=O)=O)ccc(C(=O)c2c(C)nn(C)c2OC(=O)c2cn(C)nc2C)c1Cl [Compound 34] | – | – | – | – | – | – | – | – | – | 10 | 8 (Level 8: above 80% growth inhibition rate) | 10 | 10 | 10 | 8 (Level 8: above 80% growth inhibition rate) | 0 | 1 (Level 1: above 1-10% growth inhibition rate) | 0 |
| Cc1nn(C)cc1C(=O)Oc1c(C(=O)c2ccc(S(C)(=O)=O)c(COCC(F)(F)C(F)F)c2Cl)c(C)nn1C [Compound 35] | 7 (Level 7: above 70% growth inhibition rate) | 7 (Level 7: above 70% growth inhibition rate) | 7 (Level 7: above 70% growth inhibition rate) | 10 | 5 (Level 5: above 50% growth inhibition rate) | 6 (Level 6: above 60% growth inhibition rate) | 1 (Level 1: above 1-10% growth inhibition rate) | 5 (Level 5: above 50% growth inhibition rate) | 0 | – | – | – | – | – | – | – | – | – |
| COCCCOCc1c(S(C)(=O)=O)ccc(C(=O)c2c(C)nn(C)c2OC(=O)c2cn(C)nc2C)c1Cl [Compound 37] | – | – | – | – | – | – | – | – | – | 10 | 8 (Level 8: above 80% growth inhibition rate) | 10 | 9 (Level 9: above 90% growth inhibition rate) | 10 | 5 (Level 5: above 50% growth inhibition rate) | 0 | 1 (Level 1: above 1-10% growth inhibition rate) | 0 |
| CC=CCOCc1c(S(C)(=O)=O)ccc(C(=O)c2c(C)nn(C)c2OC(=O)c2cn(C)nc2C)c1Cl [Compound 38] | – | – | – | – | – | – | – | – | – | 10 | 8 (Level 8: above 80% growth inhibition rate) | 8 (Level 8: above 80% growth inhibition rate) | 8 (Level 8: above 80% growth inhibition rate) | 10 | 10 | 0 | 1 (Level 1: above 1-10% growth inhibition rate) | 0 |
| CCOCCOCc1c(S(C)(=O)=O)ccc(C(=O)c2c(C)nn(C)c2OC(=O)c2cn(C)nc2C)c1Cl [Compound 39] | – | – | – | – | – | – | – | – | – | 10 | 8 (Level 8: above 80% growth inhibition rate) | 9 (Level 9: above 90% growth inhibition rate) | 10 | 10 | 10 | 0 | 1 (Level 1: above 1-10% growth inhibition rate) | 0 |
| C#CCOCc1c(S(C)(=O)=O)ccc(C(=O)c2cnn(C)c2OC(=O)c2cn(C)nc2C)c1Cl [Compound 41] | 7 (Level 7: above 70% growth inhibition rate) | 7 (Level 7: above 70% growth inhibition rate) | 8 (Level 8: above 80% growth inhibition rate) | 10 | 10 | 10 | 0 | 5 (Level 5: above 50% growth inhibition rate) | 0 | – | – | – | – | – | – | – | – | – |
| CCOCc1c(S(C)(=O)=O)ccc(C(=O)c2cnn(C)c2OC(=O)c2cn(C)nc2C)c1Cl [Compound 42] | 7 (Level 7: above 70% growth inhibition rate) | 7 (Level 7: above 70% growth inhibition rate) | 7 (Level 7: above 70% growth inhibition rate) | 10 | 10 | 9 (Level 9: above 90% growth inhibition rate) | 0 | 5 (Level 5: above 50% growth inhibition rate) | 0 | – | – | – | – | – | – | – | – | – |
| CC=CCOCc1c(S(C)(=O)=O)ccc(C(=O)c2cnn(C)c2OC(=O)c2cn(C)nc2C)c1Cl [Compound 43] | 7 (Level 7: above 70% growth inhibition rate) | 7 (Level 7: above 70% growth inhibition rate) | 7 (Level 7: above 70% growth inhibition rate) | 10 | 10 | 9 (Level 9: above 90% growth inhibition rate) | 0 | 3 (Level 3: above 20% growth inhibition rate) | 0 | – | – | – | – | – | – | – | – | – |
| Cc1nn(C)cc1C(=O)Oc1c(C(=O)c2ccc(S(C)(=O)=O)c(COCC(F)(F)F)c2Cl)cnn1C [Compound 44] | 7 (Level 7: above 70% growth inhibition rate) | 7 (Level 7: above 70% growth inhibition rate) | 10 | 10 | 10 | 9 (Level 9: above 90% growth inhibition rate) | 0 | 3 (Level 3: above 20% growth inhibition rate) | 0 | – | – | – | – | – | – | – | – | – |
| CCOCCOCc1c(S(C)(=O)=O)ccc(C(=O)c2cnn(C)c2OC(=O)c2cn(C)nc2C)c1Cl [Compound 45] | 7 (Level 7: above 70% growth inhibition rate) | 7 (Level 7: above 70% growth inhibition rate) | 7 (Level 7: above 70% growth inhibition rate) | 9 (Level 9: above 90% growth inhibition rate) | 10 | 7 (Level 7: above 70% growth inhibition rate) | 0 | 3 (Level 3: above 20% growth inhibition rate) | 0 | – | – | – | – | – | – | – | – | – |
